pEC50: −log10 of the molar value.
What was measured:
Type in all cases: cell-based
BminOR12 = molecular target: T1, BminOR12 (Bactrocera minax, UniProt A0A6H1V5Y2); assay: two-electrode voltage clamp in Xenopus oocytes, mean current at […]
T1 construct: gene OR12; full-length ORF (415 amino acid residues), GenBank MN855530; with BminOrco
T1 sequence (A0A6H1V5Y2 1-415): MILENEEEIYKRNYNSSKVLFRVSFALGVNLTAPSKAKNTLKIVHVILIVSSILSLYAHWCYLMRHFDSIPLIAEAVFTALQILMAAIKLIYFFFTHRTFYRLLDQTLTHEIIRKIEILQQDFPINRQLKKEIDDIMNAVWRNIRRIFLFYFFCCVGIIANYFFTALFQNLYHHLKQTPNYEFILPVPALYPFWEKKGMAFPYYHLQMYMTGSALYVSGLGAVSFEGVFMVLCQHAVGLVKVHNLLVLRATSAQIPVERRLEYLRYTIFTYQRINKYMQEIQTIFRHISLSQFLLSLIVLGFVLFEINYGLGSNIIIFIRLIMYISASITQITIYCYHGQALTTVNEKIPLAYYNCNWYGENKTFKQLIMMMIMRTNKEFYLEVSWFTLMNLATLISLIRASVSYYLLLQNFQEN
T1 sequence (A0A3G2LEL3 1-517 partner): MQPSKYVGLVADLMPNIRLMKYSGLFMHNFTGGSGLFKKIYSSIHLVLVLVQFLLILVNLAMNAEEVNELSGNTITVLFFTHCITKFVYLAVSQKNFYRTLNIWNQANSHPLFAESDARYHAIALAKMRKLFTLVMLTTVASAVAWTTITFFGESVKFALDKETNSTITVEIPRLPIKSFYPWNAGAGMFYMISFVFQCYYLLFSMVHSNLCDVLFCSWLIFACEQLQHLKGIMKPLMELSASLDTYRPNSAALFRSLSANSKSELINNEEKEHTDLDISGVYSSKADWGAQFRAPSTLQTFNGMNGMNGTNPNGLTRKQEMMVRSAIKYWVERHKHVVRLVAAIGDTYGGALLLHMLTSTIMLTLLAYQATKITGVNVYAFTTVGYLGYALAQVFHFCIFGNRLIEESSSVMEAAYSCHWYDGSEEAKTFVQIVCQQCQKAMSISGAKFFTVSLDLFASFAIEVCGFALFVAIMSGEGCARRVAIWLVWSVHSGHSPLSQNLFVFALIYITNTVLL
Source text: The respective mean response values of these are | BminOR12/BminOrco responded to eight compounds: benzyl alcohol, (S)-(+)-carvone, 1-octanol, butyl propionate, butyl acrylate

BminOR16 = molecular target: T2, BminOR16 (Bactrocera minax, UniProt A0A6N0A5X5); assay: as above
T2 construct: gene OR16; full-length ORF (404 amino acid residues), GenBank MN537977; with BminOrco
T2 sequence (A0A6N0A5X5 1-405): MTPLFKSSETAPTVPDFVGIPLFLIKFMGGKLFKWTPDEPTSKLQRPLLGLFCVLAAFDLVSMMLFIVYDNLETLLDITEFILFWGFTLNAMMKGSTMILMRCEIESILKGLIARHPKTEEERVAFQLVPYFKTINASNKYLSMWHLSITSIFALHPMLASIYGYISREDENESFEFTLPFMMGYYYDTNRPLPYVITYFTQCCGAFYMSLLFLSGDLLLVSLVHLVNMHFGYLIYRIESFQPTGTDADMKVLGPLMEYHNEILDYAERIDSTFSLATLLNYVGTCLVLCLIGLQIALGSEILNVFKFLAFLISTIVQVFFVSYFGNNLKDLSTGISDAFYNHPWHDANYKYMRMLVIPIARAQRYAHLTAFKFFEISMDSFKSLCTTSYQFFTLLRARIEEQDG
T2 sequence (A0A3G2LEL3 1-517 partner): T1 sequence (A0A3G2LEL3 1-517 partner)

BminOR3 = molecular target: T3, BminOR3 (Bactrocera minax, UniProt A0A6N0A5L8); assay: two-electrode voltage clamp in Xenopus oocytes co-expressing BminOR3/BminOrco, dose-response
T3 construct: gene OR5; full-length ORF (450 amino acid residues), GenBank MN537976; with BminOrco
T3 sequence (A0A6N0A5L8 1-451): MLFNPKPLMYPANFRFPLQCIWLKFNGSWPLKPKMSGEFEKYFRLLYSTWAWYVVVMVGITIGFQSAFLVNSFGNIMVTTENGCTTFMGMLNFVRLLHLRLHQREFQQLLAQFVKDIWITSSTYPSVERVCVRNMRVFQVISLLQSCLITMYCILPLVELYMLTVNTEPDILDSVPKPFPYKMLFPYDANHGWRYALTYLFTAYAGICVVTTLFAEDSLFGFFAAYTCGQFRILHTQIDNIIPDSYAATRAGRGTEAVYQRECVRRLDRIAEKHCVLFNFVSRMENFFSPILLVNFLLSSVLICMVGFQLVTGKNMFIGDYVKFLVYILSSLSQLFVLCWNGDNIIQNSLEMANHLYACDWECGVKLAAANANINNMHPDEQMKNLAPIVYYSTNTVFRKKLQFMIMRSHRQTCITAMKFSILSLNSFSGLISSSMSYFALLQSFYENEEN
T3 sequence (A0A3G2LEL3 1-517 partner): T1 sequence (A0A3G2LEL3 1-517 partner)
Source text: two-electrode voltage clamp in Xenopus oocytes co-expressing BminOR3/BminOrco, dose-response on BminOR3 | Dose-response curve of BminOR3/BminOrco Xenopus oocytes to 1-octen-3-ol.

Compound | two-electrode voltage clamp in Xenopus oocytes, mean current at 10^-4 M (BminOR12) [nA] | further results
CC/C=C\CCOC(C)=O [compound 43, (Z)-3-hexenyl acetate] | 91 | 
C=C(C)[C@H]1CC=C(C)C(=O)C1 [compound 15, (S)-(+)-carvone] | 34 | 
CCCCOC(=O)CC [compound 31, butyl propionate] | 60 | 
CCCCCCCCO [compound 37, 1-octanol] | 46 | 
COC(=O)c1ccccc1O [compound 10, methyl salicylate] | 138 | 
O=Cc1ccccc1 [compound 9, benzaldehyde] | 94 | 
CCCCCCCCCCCO [compound 35, undecanol] |  | two-electrode voltage clamp in Xenopus oocytes, mean current at 10^-4 M (BminOR16): 87 nA
OCc1ccccc1 [compound 16, benzyl alcohol] | 33 | 
C=CC(O)CCCCC (stereo not shown) [compound 2, 1-octen-3-ol] |  | pEC50 (BminOR3): 6.46
C=CC(=O)OCCCC [compound 40, butyl acrylate] | 63 | 
